Source: patent US20250361268A1, “NOVEL ANTI-INFLAMMATORY PEPTIDE AND USE THEREOF” (NOVACELL TECHNOLOGY INC., priority 2022, published 2025)
Peptide text beside a SMILES is read from it.

T1: FPR2 (Homo sapiens, UniProt P25090)
T1 construct: expressed in transfected cells; host or cells: RBL cells (RBL-FPR2)
T1 sequence (P25090 1-351): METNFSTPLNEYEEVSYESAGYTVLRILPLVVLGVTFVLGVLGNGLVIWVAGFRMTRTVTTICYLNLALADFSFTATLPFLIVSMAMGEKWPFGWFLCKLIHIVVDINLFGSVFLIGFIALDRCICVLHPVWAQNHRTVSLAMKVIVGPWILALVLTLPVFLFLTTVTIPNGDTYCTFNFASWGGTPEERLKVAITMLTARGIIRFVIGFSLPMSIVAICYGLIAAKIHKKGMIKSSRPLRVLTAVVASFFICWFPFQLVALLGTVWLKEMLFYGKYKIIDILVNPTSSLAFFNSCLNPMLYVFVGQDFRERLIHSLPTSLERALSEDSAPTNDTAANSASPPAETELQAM

T2: FPR1 (Homo sapiens, UniProt P21462)
T2 sequence (P21462 1-350): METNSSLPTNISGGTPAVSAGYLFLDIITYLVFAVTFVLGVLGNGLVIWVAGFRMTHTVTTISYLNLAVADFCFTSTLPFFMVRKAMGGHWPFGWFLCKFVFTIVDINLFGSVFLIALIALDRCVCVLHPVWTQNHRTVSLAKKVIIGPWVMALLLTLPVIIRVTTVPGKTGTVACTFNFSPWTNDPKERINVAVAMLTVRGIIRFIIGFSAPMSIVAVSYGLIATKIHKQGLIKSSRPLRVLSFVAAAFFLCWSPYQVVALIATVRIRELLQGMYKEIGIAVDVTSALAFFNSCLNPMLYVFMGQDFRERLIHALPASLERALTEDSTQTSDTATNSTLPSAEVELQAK

T3: FPR1 (UniProt P21462 1-350, limits assumed)
T3 sequence (looked up): T2 sequence (P21462 1-350)

B1: peptide of SEQ ID NO 72 (peptide)
peptide: MKYKPM
HELM: PEPTIDE1{[CCCC(=O)[*:2]].M.K.Y.K.P.[dM].[am]}$$$$V2.0
SMILES: CCCC(=O)N[C@@H](CCSC)C(=O)N[C@@H](CCCCN)C(=O)N[C@@H](Cc1ccc(O)cc1)C(=O)N[C@@H](CCCCN)C(=O)N1CCC[C@H]1C(=O)N[C@H](CCSC)C(N)=O
B2: peptide of SEQ ID NO 44 (peptide)
peptide: HMRYKYM
HELM: PEPTIDE1{H.M.R.Y.K.Y.[dM].[am]}$$$$V2.0; N-terminus assumed
SMILES: CSCC[C@H](NC(=O)[C@@H](N)Cc1c[nH]cn1)C(=O)N[C@@H](CCCNC(=N)N)C(=O)N[C@@H](Cc1ccc(O)cc1)C(=O)N[C@@H](CCCCN)C(=O)N[C@@H](Cc1ccc(O)cc1)C(=O)N[C@H](CCSC)C(N)=O
B3: peptide of SEQ ID NO 69 (peptide)
peptide: KMKYKPM
HELM: PEPTIDE1{[CCCCCCCC(=O)[*:2]].K.M.K.Y.K.P.[dM].[am]}$$$$V2.0
SMILES: CCCCCCCC(=O)N[C@@H](CCCCN)C(=O)N[C@@H](CCSC)C(=O)N[C@@H](CCCCN)C(=O)N[C@@H](Cc1ccc(O)cc1)C(=O)N[C@@H](CCCCN)C(=O)N1CCC[C@H]1C(=O)N[C@H](CCSC)C(N)=O
B4: peptide of SEQ ID NO 66 (peptide)
peptide: KMKYKPM
HELM: PEPTIDE1{K.M.K.Y.K.P.[dM].[am]}$$$$V2.0; N-terminus assumed
SMILES: CSCC[C@H](NC(=O)[C@@H](N)CCCCN)C(=O)N[C@@H](CCCCN)C(=O)N[C@@H](Cc1ccc(O)cc1)C(=O)N[C@@H](CCCCN)C(=O)N1CCC[C@H]1C(=O)N[C@H](CCSC)C(N)=O
B5: peptide of SEQ ID NO 43 (peptide)
peptide: MRYKYM
HELM: PEPTIDE1{[CCCC(=O)[*:2]].M.R.Y.K.Y.[dM].[am]}$$$$V2.0
SMILES: CCCC(=O)N[C@@H](CCSC)C(=O)N[C@@H](CCCNC(=N)N)C(=O)N[C@@H](Cc1ccc(O)cc1)C(=O)N[C@@H](CCCCN)C(=O)N[C@@H](Cc1ccc(O)cc1)C(=O)N[C@H](CCSC)C(N)=O
B6: peptide of SEQ ID NO 49 (peptide)
peptide: MRYRYM
HELM: PEPTIDE1{[ac].M.R.Y.R.Y.[dM].[am]}$$$$V2.0
SMILES: CSCC[C@H](NC(C)=O)C(=O)N[C@@H](CCCNC(=N)N)C(=O)N[C@@H](Cc1ccc(O)cc1)C(=O)N[C@@H](CCCNC(=N)N)C(=O)N[C@@H](Cc1ccc(O)cc1)C(=O)N[C@H](CCSC)C(N)=O
B7: peptide of SEQ ID NO 71 (peptide)
peptide: MKYKPM
HELM: PEPTIDE1{[ac].M.K.Y.K.P.[dM].[am]}$$$$V2.0
SMILES: CSCC[C@H](NC(C)=O)C(=O)N[C@@H](CCCCN)C(=O)N[C@@H](Cc1ccc(O)cc1)C(=O)N[C@@H](CCCCN)C(=O)N1CCC[C@H]1C(=O)N[C@H](CCSC)C(N)=O
B8: peptide of SEQ ID NO 48 (peptide)
peptide: RWRYRYM
HELM: PEPTIDE1{R.W.R.Y.R.Y.[dM].[am]}$$$$V2.0; N-terminus assumed
SMILES: CSCC[C@@H](NC(=O)[C@H](Cc1ccc(O)cc1)NC(=O)[C@H](CCCNC(=N)N)NC(=O)[C@H](Cc1ccc(O)cc1)NC(=O)[C@H](CCCNC(=N)N)NC(=O)[C@H](Cc1c[nH]c2ccccc12)NC(=O)[C@@H](N)CCCNC(=N)N)C(N)=O
B9: peptide of SEQ ID NO 73 (peptide)
peptide: MKYKPM
HELM: PEPTIDE1{[CCCCCCCC(=O)[*:2]].M.K.Y.K.P.[dM].[am]}$$$$V2.0
SMILES: CCCCCCCC(=O)N[C@@H](CCSC)C(=O)N[C@@H](CCCCN)C(=O)N[C@@H](Cc1ccc(O)cc1)C(=O)N[C@@H](CCCCN)C(=O)N1CCC[C@H]1C(=O)N[C@H](CCSC)C(N)=O

Columns and labels:
FPR2 = target: T1, FPR2; assay: Change in calcium activity by peptide (Fura-2) in RBL cells overexpressing FPR2; type: cell-based; conditions: calcium activity (Fura-2), graded per Table 3, read-out: EC50 for [Ca^2+] FPR2
In short: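 Peptide-induced intracellular calcium change measured by Fura-2 fluorescence on a plate reader. Cells: RBL line overexpressing FPR2, dye-loaded 1 h at 37 °C then 30 min at RT in dark; peptides from 0.5 mM water/50% DMSO stocks, diluted in HBSS with 20 mM HEPES.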

FPR1 [1] = target: T2, FPR1; assay: Change in calcium activity by peptide, FPR1 activation effect; type: cell-based; conditions: calcium activity (Fura-2), graded per Table 3, read-out: EC50 for [Ca^2+] FPR1
In short: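 Calcium flux induced by peptide addition was monitored on a FlexStation 3 plate reader. Before this, cells seeded a day earlier (3×10^5/well) took up the Fura-2 dye for 1 h at 37 °C plus 30 min dark at room temperature.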

FPR1 [2] = target: T3, FPR1; assay: cell-based or functional assay

| Molecule | EC50 (FPR2) [nM] | EC50 (FPR1 [1]) [nM] | EC50 for [Ca2+] (FPR1 [2]) [nM] |
| --- | --- | --- | --- |
| CCCCCCCC(=O)N[C@@H](Cc1c[nH]cn1)C(=O)N[C@@H](CCCCN)C(=O)N[C@@H](Cc1ccc(O)cc1)C(=O)N[C@@H](CCCCN)C(=O)N1CCC[C@H]1C(=O)N[C@H](CCSC)C(N)=O [Peptide 149] (HELM PEPTIDE1{[CCCCCCCC(=O)[*:2]].H.K.Y.K.P.[dM].[am]}$$$$V2.0) | < 10 | > 10000 |  |
| CSCC[C@@H](NC(=O)[C@@H]1CCCN1C(=O)[C@H](Cc1c[nH]c2ccccc12)NC(=O)[C@H](Cc1ccc(O)cc1)NC(=O)[C@H](CCCCN)NC(=O)[C@H](Cc1c[nH]cn1)NC(C)=O)C(N)=O [Peptide 150] (HELM PEPTIDE1{[ac].H.K.Y.W.P.[dM].[am]}$$$$V2.0) | < 10 | 1000 to 10000 |  |
| CCCC(=O)N[C@@H](Cc1c[nH]cn1)C(=O)N[C@@H](CCCCN)C(=O)N[C@@H](Cc1ccc(O)cc1)C(=O)N[C@@H](Cc1c[nH]c2ccccc12)C(=O)N1CCC[C@H]1C(=O)N[C@H](CCSC)C(N)=O [Peptide 151] (HELM PEPTIDE1{[CCCC(=O)[*:2]].H.K.Y.W.P.[dM].[am]}$$$$V2.0) | < 10 | 1000 to 10000 |  |
| CC[C@H](C)[C@H](NC(=O)[C@H](CCCNC(=N)N)NC(=O)[C@H](Cc1ccc(O)cc1)NC(=O)[C@H](CCCNC(=N)N)NC(=O)[C@H](Cc1c[nH]c2ccccc12)NC(=O)[C@@H](N)CCCNC(=N)N)C(=O)N[C@H](CCSC)C(N)=O [Peptide 152] (HELM PEPTIDE1{R.W.R.Y.R.I.[dM].[am]}$$$$V2.0) | 11 to 100 | > 10000 |  |
| CSCC[C@@H](NC(=O)[C@@H](NC(=O)[C@H](CCCNC(=N)N)NC(=O)[C@H](Cc1ccc(O)cc1)NC(=O)[C@H](CCCNC(=N)N)NC(=O)[C@H](Cc1c[nH]c2ccccc12)NC(=O)[C@@H](N)CCCNC(=N)N)[C@@H](C)O)C(N)=O [Peptide 153] (HELM PEPTIDE1{R.W.R.Y.R.T.[dM].[am]}$$$$V2.0) | 11 to 100 | > 10000 |  |
| CSCC[C@@H](NC(=O)[C@H](Cc1ccc(O)cc1)NC(=O)[C@H](CC(C)C)NC(=O)[C@H](Cc1ccc(O)cc1)NC(=O)[C@H](CCCNC(=N)N)NC(=O)[C@H](Cc1c[nH]c2ccccc12)NC(=O)[C@@H](N)CCCNC(=N)N)C(N)=O [Peptide 154] (HELM PEPTIDE1{R.W.R.Y.L.Y.[dM].[am]}$$$$V2.0) | < 10 | > 10000 |  |
| CSCC[C@@H](NC(=O)[C@H](Cc1ccc(O)cc1)NC(=O)[C@H](CC(N)=O)NC(=O)[C@H](Cc1ccc(O)cc1)NC(=O)[C@H](CCCNC(=N)N)NC(=O)[C@H](Cc1c[nH]c2ccccc12)NC(=O)[C@@H](N)CCCNC(=N)N)C(N)=O [Peptide 155] (HELM PEPTIDE1{R.W.R.Y.N.Y.[dM].[am]}$$$$V2.0) | 11 to 100 | > 10000 |  |
| CSCC[C@@H](NC(=O)[C@H](Cc1ccc(O)cc1)NC(=O)[C@H](Cc1ccccc1)NC(=O)[C@H](Cc1ccc(O)cc1)NC(=O)[C@H](CCCNC(=N)N)NC(=O)[C@H](Cc1c[nH]c2ccccc12)NC(=O)[C@@H](N)CCCNC(=N)N)C(N)=O [Peptide 156] (HELM PEPTIDE1{R.W.R.Y.F.Y.[dM].[am]}$$$$V2.0) | < 10 | > 10000 |  |
| CSCC[C@@H](NC(=O)[C@H](Cc1ccc(O)cc1)NC(=O)[C@@H](NC(=O)[C@H](Cc1ccc(O)cc1)NC(=O)[C@H](CCCNC(=N)N)NC(=O)[C@H](Cc1c[nH]c2ccccc12)NC(=O)[C@@H](N)CCCNC(=N)N)[C@@H](C)O)C(N)=O [Peptide 157] (HELM PEPTIDE1{R.W.R.Y.T.Y.[dM].[am]}$$$$V2.0) | < 10 | > 10000 |  |
| CSCC[C@@H](NC(=O)[C@@H](NC(=O)[C@H](CC(C)C)NC(=O)[C@H](Cc1ccc(O)cc1)NC(=O)[C@H](CCCNC(=N)N)NC(=O)[C@H](Cc1c[nH]c2ccccc12)NC(=O)[C@@H](N)CCCNC(=N)N)C(C)C)C(N)=O [Peptide 158] (HELM PEPTIDE1{R.W.R.Y.L.V.[dM].[am]}$$$$V2.0) | 11 to 100 | 1000 to 10000 |  |
| CSCC[C@@H](NC(=O)[C@@H](NC(=O)[C@H](CC(N)=O)NC(=O)[C@H](Cc1ccc(O)cc1)NC(=O)[C@H](CCCNC(=N)N)NC(=O)[C@H](Cc1c[nH]c2ccccc12)NC(=O)[C@@H](N)CCCNC(=N)N)C(C)C)C(N)=O [Peptide 159] (HELM PEPTIDE1{R.W.R.Y.N.V.[dM].[am]}$$$$V2.0) | 11 to 100 | 1000 to 10000 |  |
| CSCC[C@@H](NC(=O)[C@@H](NC(=O)[C@H](Cc1ccccc1)NC(=O)[C@H](Cc1ccc(O)cc1)NC(=O)[C@H](CCCNC(=N)N)NC(=O)[C@H](Cc1c[nH]c2ccccc12)NC(=O)[C@@H](N)CCCNC(=N)N)C(C)C)C(N)=O [Peptide 160] (HELM PEPTIDE1{R.W.R.Y.F.V.[dM].[am]}$$$$V2.0) | 11 to 100 | 1000 to 10000 |  |
| B1 |  |  | > 10000 |
| B2 |  |  | > 10000 |
| B3 |  |  | > 10000 |
| B4 |  |  | > 10000 |
| B5 |  |  | > 10000 |
| B6 |  |  | > 10000 |
| B7 |  |  | > 10000 |
| B8 |  |  | > 10000 |
| B9 |  |  | > 10000 |
